Measurements as given in patent publication US9173876B2, “Preparation and therapeutic applications of (2S,3R)-N-2-((3-pyridinyl)methyl)-1-azabicyclo[2.2.2]oct-3-yl)-3,5-difluorobenzamide” (Targacept, Inc., priority 2009, dated 2015).

How the values were obtained:
[1] = system: STZ rat model of diabetic neuropathy; experiment: Streptozotocin (STZ)-induced diabetic neuropathy, Von Frey allodynia; type: in vivo; details: 150 mg/kg i.p.
Protocol: Diabetes was induced by a 0.5 ml injection of streptozotocin (60 mg/kg) dissolved in citrate buffer (pH=6) into the tail vein of each rat. The development of diabetes was confirmed by measuring the blood glucose levels (BGL) of all animals on study day 3 (BGL>300 mg/dL). […] These animals were tested again for their BGL at study day 23.
(2S,3R)—N-2-((3-pyridinyl)methyl)-1-azabicyclo[2.2.2]oct-3-yl)-3,5-difluorobenzamide (0.1, 1 or 10 mg/kg p.o.) was administered as a solution of the hydrochloride salt in water once daily starting on study day 14 or study day 16 and continuing through study day 21 or 23, respectively. The control article gabapentin (in 0.9% saline, 150 mg/kg i.p.) was only administered on allodynia test days. Test item, vehicle or control article administration was based on evaluation of allodynia on study day 14. If allodynia was not present on study day 14, the animal was evaluated again at study day 16. Pain response was measured either on study days 14 and 21 or 16 and 23, 30 minutes after Test Item administration.
For the allodynia assessments, Von Frey filaments were used according to the methods of Chaplan and colleagues (1994). Briefly, the rats were placed in an enclosure and positioned on a metal mesh surface, but allowed to move freely. The rats' cabins were covered with red cellophane to diminish environmental distributions. The test began after cessation of exploratory behavior.
When the tip of a Von Frey fiber of given length and diameter was pressed against the skin at right angles, the force of application increases as long as the researcher continued to advance the probe until the fiber bent. After the fiber bent, the probe was advanced, causing the fiber to bend more, but without additional force being applied. The animal would indicate sensation by pulling back its paw. In the absence of a paw withdrawal response to the initially selected filament, a stronger stimulus was presented: in the event of paw withdrawal, the next weaker stimulus was chosen. In this fashion, the resulting pattern of positive and negative responses was used to determine the paw withdrawal threshold.
The set of Von Frey monofilaments provide an approximate logarithmic scale of actual force and a linear scale of perceived intensity. Below is a table showing the force (g) and its corresponding size of monofilaments.
All normally distributed data are presented as means±SEM, as well as the animals' individual values followed by a student T-test (Software: Microsoft® Excel). A p value<0.05 is considered to represent a significant difference. Due to the non-normal distribution of the allodynia data, descriptions of those data are provided as both mean (+SEM) and median values in order to represent their imprecise nature and skewed distribution.

db/db mouse = experiment: Murine model of type 2 diabetes mellitus (db/db mouse); type: in vivo; details: MLA 3 mg/kg daily by gavage with 1.0 mg/kg test article
Source text: The db/db mouse, a well established model of type 2 diabetes mellitus, is a leptin-deficient mutant that expresses an obese phenotype and also commonly expresses metabolic symptoms including hyperglycemia, hyperlipidemia and hyperinsulinemia (Halaas et al., 1995 and Lee et al., 1996). This experimental animal model of diabetes was employed in a study designed to determine the effects of (2S,3R)—N-2-((3-pyridinyl)methyl)-1-azabicyclo[2.2.2]oct-3-yl)-3,5-difluorobenzamide on body mass and several additional metabolic parameters.
In this study, (2S,3R)—N-2-((3-pyridinyl)methyl)-1-azabicyclo[2.2.2]oct-3-yl)-3,5-difluorobenzamide was repeatedly administered orally (via gavage) at 1.0 mg/kg once daily starting from the age of approximately 3 weeks and continuing throughout the 7-week study. Nondiabetic heterozygote littermate mice (db/+; designated “Db”) were used as controls. Body weight and food intake were determined twice weekly. The α7 antagonist methyllycaconitine (MLA) was also given concurrently via gavage at 3 mg/kg daily to selected cohorts of db/db (designated “db”) or db/+mice. At the end of the 7-week dosing regimen, total growth rates (overall body weight gain) and average daily food intake were calculated. In addition, glucose levels were assessed in mice fasted overnight. Furthermore, blood sample analytes from mice fasted overnight were collected for measurements of tumor necrosis factor-a (TNF-α), triglycerides and glycosylated hemoglobin (HbA1c). All data are expressed as mean±SEM. For each parameter investigated, differences among all groups were compared by one-way ANOVA with post-hoc Neuman-Keuls multiple comparison test.

[2] = Aqueous solubility (salt screen); details: target 10 mg/ml at 25° C. unbuffered
[3] = cited from earlier work
CD-1 mice = experiment: Formalin test; type: in vivo, mouse; details: positive control, 5 mg/kg s.c.
Protocol: Subjects (adult male CD-1 mice (Charles River, Raleigh, N.C.) weighing approximately 20-25 grams) were removed from their home cage and weighed, then placed in a clear Plexiglas™ observation box for an acclimation period of 20-30 minutes. Mice were then removed from the observation chambers and (2S,3R)—N-2-((3-pyridinyl)methyl)-1-azabicyclo[2.2.2]oct-3-yl)-3,5-difluorobenzamide (as the hydrochloride salt in 0.9% saline) (1, 3 or 10 mg/kg s.c. (calculated with respect to the free base)), morphine (5 mg/kg; s.c.) or 0.9% saline vehicle was administered subcutaneously in a volume of 1 mL/kg. Mice were then returned to the chamber for the predetermined pretreatment time of 30 minutes for (2S,3R)—N-2-((3-pyridinyl)methyl)-1-azabicyclo[2.2.2]oct-3-yl)-3,5-difluorobenzamide and morphine.
The subject's assigned paw was grasped gently and formalin solution was injected into the paw intra-dermally in the middle on the dorsal side. Once injected, the subject was immediately returned to its observation chamber and a timer was started to mark the beginning of Phase I. Each subject was videotaped for the entire 40-minute session. […] The time spent licking during that 1 min interval was recorded, and the presence or absence of paw favoring was noted.
For data analyses, phase I of the test was defined as 0 to 5 minutes after formalin injection, and phase II was defined as 20 to 40 minutes after formalin injection. The time spent licking during the 1 minute intervals during those time frames was recorded and graphed as mean±S.E.M. For comparisons across treatment groups, 1-way analyses of variance (ANOVAs) were performed for each phase of the session with treatment as the […] variable. Post-hoc analyses were performed when appropriate to determine specific group differences.

Sprague-Dawley rats = experiment: Complete Freund's adjuvant (CFA)-induced thermal hyperalgesia; type: in vivo, rat; details: reference standard, 3 mg/kg s.c., 1 hour after dosing
Source text: Briefly, adult male Sprague-Dawley rats (BioLasco, Taiwan) weighing 180±20 g on receipt were randomly assigned to treatment groups of n=8 per group. […] A subject was placed within a plastic box atop an elevated glass floor and a light beam located under the glass floor was directed at the plantar surface of the right hind paw. The time required for the animal to withdraw the paw from the thermal stimulus was automatically recorded. The intensity of the light was adjusted to evoke an average group baseline latency from 12-14 seconds (pre-CFA) and a cut-off latency of 20 seconds was imposed. The latency for paw withdrawal was obtained for each rat and defined as the heat pain threshold.
Test substance, morphine and vehicle were administered by subcutaneous (s.c.) injection at time 0. The post-treatment level of thermal hyperalgesia was then measured at 60 minutes post-treatment. One-way ANOVA followed by Dunnett's test was applied for comparison between test substance treated groups and vehicle control group. Activity was considered significant at the P<0.05 level.

## NCC1(CC(=O)O)CCCCC1 [gabapentin, reference compound]
[1]; study days 14/16
  Paw withdrawal force post treatment, median: 60 g
[1]; study days 14/16, pre treatment 22.77±3.77 g, vehicle 26.61±4.41 g
  Paw withdrawal force post treatment, mean±SEM: 45.62 ± 4.24 g
[1]; study days 21/23
  Paw withdrawal force post treatment, median: 60 g
[1]; study days 21/23, pre treatment 28.23±4.91 g, vehicle 20.46±3.31 g
  Paw withdrawal force post treatment, mean±SEM: 50.88 ± 4.12 g
[1]; positive control, all treatment days, vs pretreatment and vehicle, p<0.01
  Tactile allodynia (Von Frey): reversed the tactile allodynia significantly

## CCN1C[C@]2(COC(=O)c3ccccc3N3C(=O)C[C@H](C)C3=O)CC[C@H](OC)[C@@]34[C@@H]5C[C@H]6[C@H](OC)[C@@H]5[C@](O)(C[C@@H]6OC)[C@@](O)([C@@H](OC)[C@H]23)[C@@H]14 [MLA, methyllycaconitine, reference compound]
db/db mouse; FIG. 15
  Weight gain on co-administration of MLA with the difluorobenzamide: failed to show the reduced weight gain
db/db mouse; FIG. 16
  Daily average food consumption on co-administration of MLA with the difluorobenzamide: failed to show the reduced daily average food consumption
db/db mouse; FIG. 17
  Reversal of the fasting plasma glucose effect by co-administration of MLA: not reversed
db/db mouse; FIG. 18
  Effect of MLA co-administration on the reduction in glycosylated HbA1c: attenuated
db/db mouse; FIG. 19
  Effect of MLA co-administration on the TNF alpha reduction: inhibited
db/db mouse; FIG. 20
  Effect of MLA co-administration on the reduction in triglycerides: not attenuated

## O=C(N[C@@H]1C2CCN(CC2)[C@H]1Cc1cccnc1)c1cc(F)cc(F)c1.O=P(O)(O)O [Phosphate mono salts]
[2]
  Aqueous Solubility: >10000 µg/mL

## O=C(O)c1ccc2ccccc2c1O [1-Hydroxy-2-Naphthoic acid]
[3]
  LogP: 3.29

## CN1CC[C@]23c4c5ccc(O)c4O[C@H]2[C@@H](O)C=C[C@H]3[C@H]1C5 [morphine, reference compound]
CD-1 mice
  Time spent licking, phase I and phase II: efficacious in both phases of the test
Sprague-Dawley rats
  Analgesic effect on CFA-induced thermal hyperalgesia: significant analgesic activity

## N[C@@H](CC(=O)O)C(=O)O [L-Aspartic acid]
[3]
  LogP: −0.67

## Cc1ccc(S(=O)(=O)O)cc1 [p-Toluene sulfonic acid]
[3]
  LogP: 0.93

## O=C(O)/C=C/C(=O)O [Fumaric acid]
[3]
  LogP: −0.01

## O=C(N[C@@H]1C2CCN(CC2)[C@H]1Cc1cccnc1)c1cc(F)cc(F)c1.O=C(O)/C=C/C(=O)O [Fumarate mono salt]
[2]
  Aqueous Solubility: >10000 µg/mL

## CCC(=O)O [Propionic acid]
[3]
  LogP: 0.25

## O=C(O)CNC(=O)c1ccccc1 [Hippuric acid]
[3]
  LogP: 0.31

## O=S(=O)(O)c1ccccc1 [Benzene sulfonic acid]
[3]
  LogP: 0.47

## O=C(O)[C@H](O)[C@@H](O)[C@H](O)[C@H](O)CO [D-Gluconic acid]
[3]
  LogP: −3.18

## Cl.O=C(N[C@@H]1C2CCN(CC2)[C@H]1Cc1cccnc1)c1cc(F)cc(F)c1 [Hydrochloride mono salts]
[2]
  Aqueous Solubility: >10000 µg/mL

## O=C(O)/C=C\C(=O)O [Maleic acid]
[3]
  LogP: −0.01
